This note sets out measurements from patent US4060612A, “Pharmaceutically active 2-omega-aminoalkoxydiphenyl sulfides” (Mitsubishi Chemical Industries Ltd., priority 1976, dated 1977).

Where a name gives a salt, the structure may show the parent alone. Read-outs that look alike come from different tables or passages of the source.

Data set [1] relates to reserpine induced hypothermia. The data set is described as follows: Antagonism of reserpine induced hypothermia in mice (antidepressant / antireserpine activity). The class given is in vivo. Conditions: for Relative Potency (antireserpine activity, Amitriptyline = 1): reserpine 5 mg/kg i.p., compounds given intraperitoneally. The protocol: (§1) Anticonvulsant activity has also been discovered in the compounds of this invention. The compounds have been tested in mice for antidepressant, sedative, anticonvulsant and anticholinergic activity. The compounds were administered intraperitoneally and the activities of the compounds were compared with those of Amitriptyline. Antidepressant activity was evaluated by antagonism of reserpine (5 mg/kg, i.p.) induced hypothermia (P. S. J. Spencer in "Antidepressant Drugs", S. Garattini and M. N. G. Duhes, ed., Excerpta Medica Foundation, Amsterdam, pages 194-204 (1967)) and antireserpine activity was expressed as relative potency (Amitriptyline = 1). LD50 was calculated by the Litchfield-Wilcoxon method. CNS depressant activity was defined by the ability of the compounds to cause neurological deficit as measured by a traction test (S. Courvoisier, R. Ducrot, L. Julou; "Psychotropic Drugs" ed. by S. Garattini, V. Ghetti, page 373 (1957)) and spontaneous motor activity. (Spontaneous motor activity was measured by an ANIMEX apparatus.) Anticonvulsant activity was determined by antagonism of electroshock induced tonic extensor [L. S. Goodman, M. Singh Grewal, W. C. Brown and E. A. Swinyard, J. Pharmacol, Exptal. Therap., 108, 168 (1953)]. Central anticholinergic effect was assessed by testing a tremorine induced tremor in mice [G. M. Everett, L. E. Bloucus and J. M. Sheppard, Science 124, 79 (1956)]. Results of these tests are summarized in Tables I and II, in which ED50 is defined as the dose of the test compounds which prevents 50% of each response.

Data set [2] is described as follows: Acute toxicity, LD50 (Litchfield-Wilcoxon method). The class given is in vivo. Conditions: for LD50: mouse, in vivo, ip. As for the experimental part:
as §1

The subject of data set [3] is electroshock induced tonic extensor. The data set is described as follows: Anticonvulsant activity: antagonism of electroshock induced tonic extensor. It is filed as in vivo, mice. Conditions: Mus musculus, ip, read-out: Anticonvulsant Activity ED50. As for the experimental part:
as §1, with “Therap., 108, 168 (1953)].” left out, “Results of these tests are summarized in Tables I and II, in which ED50 is defined as the dose of the test compounds which prevents 50% of each response.” left out

Data set [4] relates to spontaneous motor activity. The data set is described as follows: CNS depressant activity: spontaneous motor activity (ANIMEX apparatus). To be noted: Mus musculus, ip, read-out: Spontaneous Motor Activity Depression ED50. It is filed as in vivo, mice. As for the experimental part:
as §1, with “Therap., 108, 168 (1953)].” left out, “Results of these tests are summarized in Tables I and II, in which ED50 is defined as the dose of the test compounds which prevents 50% of each response.” left out

A further data set relates to tremorine induced tremor. The data set is described as follows: Central anticholinergic effect: tremorine induced tremor in mice. It is filed as in vivo. To be noted: for ED50: Mus musculus, ip, read-out: Antitremorine Effect ED50. The protocol:
as §1

For data set [5], the system named is neurological deficit (traction test). The data set is described as follows: CNS depressant activity: muscle relaxant action (traction test). The class given is in vivo, mice. To be noted: for ED50: Mus musculus, ip, read-out: Muscle Relaxant Action ED50. As for the experimental part:
as §1

[6] abbreviates: intraperitoneal, mice, Litchfield-Wilcoxon, read-out: LD50.

With `CN(C)CCCCCOc1ccccc1Sc1ccccc1` [2-(5-dimethylaminopentyloxy) diphenyl sulfide hydrochloride], the “Relative Potency (antireserpine activity, Amitriptyline = 1)” value (“Relative Potency” for short) in data set [1] turned out to be 0.15.

As for `c1ccc(Sc2ccccc2OCCCCN2CCOCC2)cc1` [2-(4-morpholinobutoxy) diphenyl sulfide hydrochloride], the “Relative Potency” value in data set [1] came out at 0.38.

As usually defined, the LD50 is the dose at which mortality reaches 50%. As for `CNCCCOc1ccccc1Sc1ccccc1` [2-(3-methylaminopropoxy) diphenyl sulfide hydrochloride], the median lethal dose (LD50) in data set [2] (setting [6]) was 135 mg/kg. Further, the “Relative Potency” value in data set [1] is 0.60.

What is called ED50 is the dose at which the effect has come halfway, by size or by number of responders. In the case of `CN(C)CCC=C1c2ccccc2CCc2ccccc21` [Amitriptyline, reference compound], the ED50 in data set [3] was 16 mg/kg; in data set [4], 18 mg/kg; with tremorine induced tremor it was 4 mg/kg; in data set [5], 15 mg/kg.

Turning to `CN(C)CCCCOc1ccccc1Sc1ccccc1` [2-(4-dimethylaminobutoxy)-diphenyl sulfide hydrochloride], the LD50 in data set [2] (setting [6]) is 130 mg/kg. In addition, in data set [1], the “Relative Potency” value is 0.70.

Take `NCCCCOc1ccccc1Sc1ccccc1` [2-(4-aminobutoxy) diphenyl sulfide hydrochloride]: in data set [1], the “Relative Potency” value came to 0.36.

Consider `CNCCCCOc1ccccc1Sc1ccccc1` [2-(4-methylaminobutoxy) diphenyl sulfide hydrochloride], for which the ED50 in data set [3] (electroshock, mice, i.p., dose which prevents 50% of response) is greater than 60 mg/kg; in data set [4] (ANIMEX, mice, i.p., CNS depressant activity), greater than 60 mg/kg; in the data set with tremorine induced tremor (tremorine induced tremor, mice, i.p., central anticholinergic) it was 30 mg/kg; in data set [5] (traction test, mice, i.p., CNS depressant activity), 50 mg/kg. In addition, the “toxicity (in words)” value in data set [2] (mice, i.p., from Tables I and II) was “low toxicity”. The molecule further returned an LD50 in data set [2] of 120 mg/kg. Also, the “antireserpine activity (in words)” value in data set [1] (i.p., from Tables I and II) was “comparable to that of Amitriptyline”. Further, in data set [1], the “Relative Potency” value was determined as 0.90. For the same molecule, in the data set with tremorine induced tremor (mice, i.p.), the “anticholinergic action (in words)” value is “weak CNS depressant and anticholinergic action”. Besides, the “CNS depressant action (in words)” value in data set [5] (mice, i.p., traction test and spontaneous motor activity) was “weak”.

For `CN(C)CCCOc1ccccc1Oc1ccccc1` [2-(3-dimethylaminopropoxy) diphenyl ether hydrochloride, reference compound], the “Relative Potency” value in data set [1] was found to be 0.14.
